From article PMC12203697, “Bioactive constituents from the edible seaweed Halymenia hawaiiana (Rhodophyta)” (Pharmaceutical Biology, 2025)

Test system: ROS/RNS generation in RAW 264.7 cells
Test: Intracellular ROS/RNS levels in LPS-induced RAW 264.7 cells (H2DCF-DA)
Type: cell-based
Conditions: Mus musculus, RAW264.7; RAW 264.7 cells, H2DCF-DA dye, LPS 1 μg/mL; read-out: IC50, inhibition of LPS-induced ROS/RNS generation
Procedure: To measure the formation of intracellular ROS and RNS, we utilized the fluorogenic dye 2′,7′-dichlorodihydrofluorescein diacetate (Cat. No. 4091-99-0, H2DCF-DA, Abcam, Boston, MA, USA). This dye detects hydrogen peroxide, peroxyl radicals, and peroxynitrite anions (Kwon et al. [2019]). In brief, RAW 264.7 cells were seeded into a black 96-well plate (Cat. No. 165305, Thermo Fisher, USA) at 4 × 10^4 cells per well and incubated for 24 hr at 37 °C in 5% CO2. Afterward, the cells were treated with or without a sample for 4 hr before adding 1 μg/mL LPS (Cat. No. 00-4976-93, Thermo Fisher, USA) for 20 hr. Once this incubation was complete, the cells were washed twice with fetal bovine serum (FBS)-free media (Cat. No. A5256701, Thermo Fisher, USA) and stained with 10 μM H2DCF-DA (Cat. No. D399, Thermo Fisher, USA) in FBS-free media for 30 min at 37 °C, protected from light. Next, the dye-containing media was discarded, and the cells were washed twice with fresh serum-free media. The relative fluorescent intensity of the cells was measured using a fluorescence plate reader (Synergy H1, BioTeK, Winooski, VT, USA) with excitation/emission at 485 nm/535 nm. Curcumin (Cat. No. C1386-5G, Millipore Sigma, Burlington, MA, USA), a natural phenolic compound with antioxidant activity, was used as positive control. All samples were tested in triplicates. A sulforhodamine B (SRB) assay was conducted to assess cellular viability under a similar experimental setup. The final percentage of inhibition of ROS/RNS generation was calibrated using the % of cell viability.

IC50: 7.6 ± 0.1 µM
Compound: COc1cc(/C=C/C(=O)CC(=O)/C=C/c2ccc(O)c(OC)c2)ccc1O [Curcumin, reference compound]
